Measurements from patent publication US11149019B2, “Phenylpyridine derivative and pharmaceutical composition comprising the same” (Daewoong Pharmaceutical Co., Ltd., priority 2017, dated 2021).

Columns and labels:
ITK = molecular target: T1, ITK (Homo sapiens, UniProt Q08881); assay: ADP-Glo + ITK Kinase enzyme system kit, inhibitory activity against ITK; type: biochemical; conditions: ITK enzyme 0.4 ng/ul, ATP final concentration of 25 ul, 30° C. for 1 hour, luminescence, duplicate
T1 construct: purchased Promega Corporation
T1 sequence (Q08881 1-620): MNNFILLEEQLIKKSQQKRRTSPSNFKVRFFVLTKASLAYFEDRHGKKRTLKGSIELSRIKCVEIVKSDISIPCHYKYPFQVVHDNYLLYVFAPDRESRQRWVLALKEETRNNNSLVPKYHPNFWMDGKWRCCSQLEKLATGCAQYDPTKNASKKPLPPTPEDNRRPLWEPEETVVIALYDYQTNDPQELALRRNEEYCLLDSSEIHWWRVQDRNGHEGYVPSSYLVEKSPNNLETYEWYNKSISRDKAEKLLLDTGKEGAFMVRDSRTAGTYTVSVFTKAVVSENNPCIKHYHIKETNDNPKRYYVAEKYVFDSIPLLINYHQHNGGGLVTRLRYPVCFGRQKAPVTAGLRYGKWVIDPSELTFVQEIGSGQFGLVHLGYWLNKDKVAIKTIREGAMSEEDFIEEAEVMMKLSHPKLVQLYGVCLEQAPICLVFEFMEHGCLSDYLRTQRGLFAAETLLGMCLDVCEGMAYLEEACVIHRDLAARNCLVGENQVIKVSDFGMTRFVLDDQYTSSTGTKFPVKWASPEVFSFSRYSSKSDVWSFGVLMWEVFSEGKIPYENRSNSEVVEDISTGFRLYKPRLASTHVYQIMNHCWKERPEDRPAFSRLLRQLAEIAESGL
Protocol: (§1) Inhibitory activities against BTK and ITK were measured for the compounds prepared in the above Examples as follows.
The inhibitory activity against ITK was evaluated using ‘ADP-Glo™+ITK Kinase enzyme system’ kit (Promega Corporation). In a white 96-well plate, 10 ul of ITK enzyme prepared so as to have a final concentration of 0.4 ng/ul was mixed with 5 ul of compounds having a final concentration of 1 uM in the case of evaluating a single concentration of compound and a concentration of 1000, 300, 100, 30, 10, 3, 1, 0.3, 0.1 and 0.03 nM in the case of IC50 evaluation, and then reacted at room temperature for 15 minutes. To the plate on which reactions were completed, 5 ul of substrate and 5 ul of ATP prepared so as to have a final concentration of […] added and then allowed to react at 30° C. for 1 hour. All wells of the plate were treated with 25 ul of ADP-Glo™ reagent and then allowed to react at 30° C. for 40 minutes. After that, all wells were treated with 50 ul of kinase detection buffer, and then allowed to react at 30° C. for 30 minutes under light shielding conditions. For the plate on which all reactions were completed, luminescence was measured and the results were calculated. Evaluation was carried out in duplicate, and negative control and positive control were calculated depending on whether or not the enzyme was added without treatment of the compound. The IC50 was calculated based on the calculated values.

BTK = molecular target: T2, BTK (Homo sapiens, UniProt Q06187); assay: ADP-Glo + BTK Kinase enzyme system kit, inhibitory activity against BTK; type: biochemical; conditions: BTK enzyme 1 ng/ul, ATP 10 μM, 30° C. for 1 hour, luminescence, duplicate
T2 construct: purchased Promega Corporation
T2 sequence (Q06187 whole entry): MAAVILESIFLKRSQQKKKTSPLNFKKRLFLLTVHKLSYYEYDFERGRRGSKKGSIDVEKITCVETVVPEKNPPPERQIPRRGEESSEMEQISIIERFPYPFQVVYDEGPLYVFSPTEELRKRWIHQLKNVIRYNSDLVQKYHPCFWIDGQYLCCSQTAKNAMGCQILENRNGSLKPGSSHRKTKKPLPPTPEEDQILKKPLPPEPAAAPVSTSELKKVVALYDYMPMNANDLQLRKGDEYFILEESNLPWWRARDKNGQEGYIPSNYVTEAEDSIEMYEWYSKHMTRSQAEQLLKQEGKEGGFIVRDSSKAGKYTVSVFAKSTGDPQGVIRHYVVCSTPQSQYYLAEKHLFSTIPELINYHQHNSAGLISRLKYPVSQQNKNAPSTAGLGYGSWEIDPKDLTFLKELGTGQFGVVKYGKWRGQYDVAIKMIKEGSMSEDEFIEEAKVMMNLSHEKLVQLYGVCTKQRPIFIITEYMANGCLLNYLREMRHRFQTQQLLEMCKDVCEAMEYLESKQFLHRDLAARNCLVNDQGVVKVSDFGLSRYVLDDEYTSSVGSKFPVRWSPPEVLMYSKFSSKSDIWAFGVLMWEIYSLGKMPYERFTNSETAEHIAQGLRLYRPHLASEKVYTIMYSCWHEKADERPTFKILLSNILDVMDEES
Protocol: as §1
The inhibitory activities against BTK were evaluated using ‘ADP-Glo™+BTK Kinase enzyme system’ kit (Promega Corporation). In a white 96-well plate, 10 ul of BTK enzyme prepared so as to have a final concentration of 1 ng/ul was mixed with 5 μl of compounds having a final concentration of […] the case of evaluating a single concentration of compound and a concentration of 1000, 300, 100, 30, 10, 3, 1, 0.3, 0.1 and 0.03 nM in the case of IC50 evaluation, and then reacted at room temperature for 15 minutes. 5 ul of substrate and 5 ul of ATP prepared so as to have a final concentration of 10 μM were added to the plate on which reactions were completed, and then allowed to react at 30° C. for 1 hour. All wells of the plate were treated with 25 ul of ADP-Glo™ reagent and allowed to react at 30° C. for 40 minutes. After that, all wells were treated with 50 ul of kinase detection buffer, and then reacted at 30° C. for 30 minutes under light shielding conditions. For the plate on which all reactions were completed, luminescence was measured and the results were calculated. Evaluation was carried out in duplicate, and negative control and positive control were calculated depending on whether or not the enzyme was added without treatment of the compound. The IC50 was calculated based on the calculated values.

| IC50 (ITK) | IC50 (BTK) | Compound |
| --- | --- | --- |
| 68.1 nM | 310 nM | C=CC(=O)Nc1cccc(-c2cc(C(=O)N3CCOCC3)cc(Nc3cc(C4CC4)[nH]n3)n2)c1 [Compound 28, N-(3-(6-(5-cyclopropyl-1H-pyrazol-3-ylamino)-4-(morpholine-4-carbonyl)pyridin-2-yl)phenyl)acrylamide] |
| 18.6 nM | 5.2 nM | C=CC(=O)Nc1cccc(-c2cc(C(=O)N3CCOCC3)cc(Nc3ncc(C)s3)n2)c1 [Compound 29, N-(3-(6-((5-methylthiazol-2-yl)amino)-4-(morpholine-4-carbonyl)pyridin-2-yl)phenyl)acrylamide] |
| 4.3 nM | 3.1 nM | C=CC(=O)Nc1cccc(-c2cc(CN3CCOCC3)cc(Nc3ncc(C)s3)n2)c1 [Compound 30, N (3(6(5-methylthiazol-2-ylamino)-4-(morpholinomethyl)pyridin-2-yl)phenyl)acrylamide] |
| 56.9 nM | 17.6 nM | C=CC(=O)Nc1cccc(-c2cc(C(=O)N3CCOCC3)cc(Nc3cc(C)[nH]n3)n2)c1 [Compound 31, N-(3-(6-((5-methyl-1H-pyrazol-3-yl)amino)-4-(morpholine-4-carbonyl)pyridin-2-yl)phenyl)acrylamide] |
| > 1000 nM | 1.9 nM | C=CC(=O)Nc1cccc(-c2cc(CN3CCOCC3)cc(Nc3ncc(C(=O)Nc4c(C)cccc4Cl)s3)n2)c1 [Compound 33, 2-((6-(3-acrylamidophenyl)-4-(morpholinomethyl)pyridin-2-yl)amino)-N-(2-chloro-6-methylphenyl)thiazole-5-carboxamide] |
| 3.1 nM | 2.4 nM | C=CC(=O)Nc1cccc(-c2cc(CN3CC(C)OC(C)C3)cc(Nc3ncc(C)s3)n2)c1 (centres unmarked) [Compound 34] |
| > 1000 nM | > 400 nM | C=CC(=O)Nc1cccc(-c2cc(N(C)C)cc(Nc3ncc(C)s3)n2)c1 [Compound 35, N-(3-(4-(dimethylamino)-6-((5-methylthiazol-2-yl)amino)pyridin-2-yl)phenyl)acrylamide] |
| 394 nM | > 100 nM | C=CC(=O)Nc1cccc(-c2cc(N3CCOCC3)cc(Nc3ncc(C)s3)n2)c1 [Compound 36, N-(3-(6-((5-methylthiazol-2-yl)amino)-4-morpholinopyridin-2-yl)phenyl)acrylamide] |
| 5.5 nM | 0.9 nM | C=CC(=O)Nc1cccc(-c2cc(CN3CCN(C)CC3)cc(Nc3ncc(C)s3)n2)c1 [Compound 37, N-(3-(4-((4-methylpiperazin-1-yl)methyl)-6-(5-methylthiazol-2-ylamino)pyridin-2-yl)phenyl)acrylamide] |
| 536 nM | > 400 nM | C/C=C/C(=O)Nc1cccc(-c2cc(Cc3ccccc3)cc(Nc3cc(C)[nH]n3)n2)c1 [Compound 38, (E)-N-(3-(4-benzyl-6-(5-methyl-1H-pyrazol-3-ylamino)pyridin-2-yl)phenyl)but-2-enamide] |
| > 1000 nM | 252 nM | C=CC(=O)Nc1cccc(-c2cc(CN3CCOCC3)cc(Nc3nnc(C)s3)n2)c1 [Compound 39, N-(3-(6-(5-methyl-1,3,4-thiadiazol-2-ylamino)-4-(morpholinomethyl)pyridin-2-yl)phenyl)acrylamide] |
| > 1000 nM | > 400 nM | C=CC(=O)Nc1cccc(-c2cc(CN3CCOCC3)cc(Nc3cc(C)on3)n2)c1 [Compound 40, N-(3-(6-((5-methylisoxazol-3-ylamino)-4-(morpholino)methyl)pyridin-2-yl)phenyl)acrylamide] |
| > 1000 nM | > 400 nM | C=CC(=O)Nc1cccc(-c2cc(CN3CCOCC3)cc(Nc3nnc(C)o3)n2)c1 [Compound 41, N-(3-(6-((5-methyl-1,3,4-oxadiazol-2-yl)amino)-4-(morpholinomethyl)pyridin-2-yl)phenyl)acrylamide] |
| > 1000 nM | > 400 nM | C=CC(=O)Nc1cccc(-c2cc(CN3CCOCC3)cc(NC(=O)C3CC3)n2)c1 [Compound 42, N-(6-(3-acrylamidophenyl)-4-(morpholinomethyl)pyridin-2-yl)cyclopropanecarboxamide] |
| 2.1 nM | 2.3 nM | C=CC(=O)Nc1cccc(-c2cc(CN3CCN(CCO)CC3)cc(Nc3ncc(C)s3)n2)c1 [Compound 43, N-(3-(4-((4-(2-hydroxyethyl)piperazin-1-yl)methyl)-6-(5-methylthiazol-2-ylamino)pyridin-2-yl)phenyl)acrylamide] |
| 12 nM | 2 nM | C=CC(=O)Nc1cccc(-c2cc(CN3CCOCC3)cc(Nc3ncns3)n2)c1 [Compound 44, N-(3-(6-((1,2,4-thiadiazol-5-yl)amino)-4-(morpholinomethyl)pyridin-2-yl)phenyl)acrylamide] |
| 2.1 nM | 3 nM | C=CC(=O)Nc1cccc(-c2cc(CN3CCN(C4CC4)CC3)cc(Nc3ncc(C)s3)n2)c1 [Compound 45, N-(3-(4-((4-cyclopropylpiperazin-1-yl)methyl)-6-((5-methylthiazol-2-yl)amino)pyridin-2-yl)phenyl)acrylamide] |
| 1.6 nM | 1.7 nM | C=CC(=O)Nc1cccc(-c2cc(CN3C[C@@H](C)O[C@@H](C)C3)cc(Nc3ncc(C)s3)n2)c1 [Compound 46, N-(3-(4-(((2S,6R)-2,6-dimethylmorpholino)methyl)-6-(5-methylthiazol-2-ylamino)pyridin-2-yl)phenyl)acrylamide] |
| 8.2 nM | 3 nM | C=CC(=O)Nc1cccc(-c2cc(CN3CCCC3)cc(Nc3ncc(C)s3)n2)c1 [Compound 47, N-(3-(6-((5-methylthiazol-2-yl)amino)-4-(pyrrolidin-1-ylmethyl)pyridin-2-yl)phenyl)acrylamide] |
| 4.3 nM | 1.1 nM | C=CC(=O)Nc1cccc(-c2cc(CN3CCN(CCC)CC3)cc(Nc3ncc(C)s3)n2)c1 [Compound 48, N-(3-(6-((5-methylthiazol-2-yl)amino)-4-((4-propylpiperazin-1-yl)methyl)pyridin-2-yl)phenyl)acrylamide] |
| 3.1 nM | 1.3 nM | C=CC(=O)Nc1cccc(-c2cc(CN3CCN(CCOC)CC3)cc(Nc3ncc(C)s3)n2)c1 [Compound 49, N-(3-(4-((4-(2-methoxyethyl)piperazin-1-yl)methyl)-6-(5-methylthiazol-2-ylamino)pyridin-2-yl)phenyl)acrylamide] |
| 5 nM | 2.2 nM | C=CC(=O)Nc1cccc(-c2cc(CN3CCN(CC(F)(F)F)CC3)cc(Nc3ncc(C)s3)n2)c1 [Compound 50, N (3(6(5methylthiazol-2-ylamino)-4-((4-(2,2,2-trifluoroethyl)piperazin-1-yl)methyl)pyridin-2-yl)phenyl)acrylamide] |
| 2.2 nM | 5.2 nM | C=CC(=O)Nc1cccc(-c2cc(CN3CCOCC3)cc(Nc3ncc(C(F)(F)F)s3)n2)c1 [Compound 51] |
| 2.2 nM | 1.9 nM | C=CC(=O)Nc1ccc(F)c(-c2cc(CN3CCOCC3)cc(Nc3ncc(C)s3)n2)c1 [Compound 52] |
| 3.8 nM | 2.3 nM | C=CC(=O)Nc1cccc(-c2cc(CN3CCN(CC)CC3)cc(Nc3ncc(C)s3)n2)c1 [Compound 53, N-(3-(4-((4-ethylpiperazin-1-yl)methyl)-6-(5-methylthiazol-2-yl)amino)pyridin-2-yl)phenylacrylamide] |
